Reference: patent US11401555B2, “Genetic polymorphisms associated with stroke, methods of detection and uses thereof” (CELERA CORPORATION, priority 2008, dated 2022)

Assay: Stroke statin response (SSR) in the PROSPER pravastatin trial: pravastatin-treated versus placebo-treated, by SNP genotype
Format: in vivo, human
Settings: for HR_RESP_unadj (hazard ratio, pravastatin-treated versus placebo-treated): endpoint stroke; for EVENTS_RESP (number of stroke events): pravastatin arm
Description: (hCV26505812) for association with SSR in CARE (Table 37) and PROSPER (Table 38), including both unadjusted and adjusted analyses (adjusted for factors such as age, gender, smoking status, hypertension, diabetes, BMI, and LDL and HDL levels). Table 37 provides results in CARE, and Table 38 provides results in PROSPER (whether each analysis is unadjusted or adjusted is indicated in the “adjust” column in Table 37, or by “unadj” and “adj” column labels in Tables 38). With respect to Tables 22-32 and 37-38, the columns labeled “Genotype” (in Tables 22-28 and 37), “Geno_Placebo” (in Tables 29-30 and 38), and “Geno_Resp” (in Tables 31-32 and 38) indicate the genotype which the given stroke risk or SSR results correspond to. […] In Tables 29-32 and 38, the columns labeled “LOWER_PLACEBO” and “UPPER_PLACEBO” (Tables 29-30 and 38), and “LOWER_RESP” and “UPPER_RESP” (Tables 31-32 and 38), refer to the lower and upper 95% confidence intervals for the hazard ratios. See Example Six below for further information relating to Tables 22-32 and 37-38. […] As used herein, the term “benefit” (with respect to a preventive or therapeutic drug treatment) is defined as achieving a reduced risk for a disease that the drug is intended to treat or prevent (e.g., stroke) by administrating the drug treatment, compared with the risk for the disease in the absence of receiving the drug treatment (or receiving a placebo in lieu of the drug treatment) for the same genotype. The term “benefit” may be used herein interchangeably with terms such as “respond positively” or “positively respond”. For stroke risk and statin response associations based on samples from the CARE and PROSPER trials described herein, stroke risk is assessed by comparing the risk of stroke for a given genotype with the risk of stroke for a reference genotype either in the placebo arm of the trial or in the whole study population of the trial, and statin response is assessed by comparing the risk of stroke in the pravastatin arm of the trial with the risk of stroke in the placebo arm of the trial for the same genotype. […] Example Five above describes the analysis of these 61 SNPs plus 17 additional SNPs in the German West Study. […] In PROSPER, SNPs were analyzed for association with stroke risk or SSR, in the whole study cohort (strata: “ALL”), or in the subgroup with a history of CVD (strata: “hist”) or without a CVD history (strata: “no hist”). […] Also in the CARE and PROSPER trials, the chromosome 9p21 SNP […] (hCV26505812) was analyzed further for association with SSR, including unadjusted and adjusted analysis. Adjusted analysis in CARE (Table 37) was adjusted for age, gender, smoking status, hypertension, diabetes, body mass index (BMI), and LDL and HDL levels, and adjusted analysis in PROSPER (Table 38) was adjusted for country, gender, age, LDL, HDL, smoking status (current vs. past or never), history of hypertension, and diabetes. Table 37 provides results in CARE, and Table 38 provides results in PROSPER (whether each analysis is unadjusted or adjusted is indicated in the “adjust” column in Table 37, or by “unadj” and “adj” column labels in Tables 38). All the p-values (including Pint values) provided in Tables 37-38 are two-sided p-values.

[1] = hCV1348610 rs3739636 C9orf46, GENO_RESP AA + AG, MODE DOM, STRATA hist
[2] = hCV1348610 rs3739636 C9orf46, GENO_RESP AA, MODE GEN, STRATA hist
[3] = hCV1348610 rs3739636 C9orf46, GENO_RESP AG, MODE GEN, STRATA hist
[4] = hCV1348610 rs3739636 C9orf46, GENO_RESP GG, MODE GEN, STRATA hist
[5] = hCV2091644 rs1010 VAMP8, GENO_RESP CC, MODE GEN, STRATA no hist
[6] = hCV2091644 rs1010 VAMP8, GENO_RESP CT, MODE GEN, STRATA no hist
[7] = hCV2091644 rs1010 VAMP8, GENO_RESP TT, MODE GEN, STRATA no hist

With `CC[C@H](C)C(=O)O[C@H]1C[C@H](O)C=C2C=C[C@H](C)[C@H](CC[C@@H](O)C[C@@H](O)CC(=O)O)[C@H]21` [pravastatin] the “HR_RESP_unadj (hazard ratio, pravastatin-treated versus placebo-treated)” value (PROSPER, rs10757274 genotype AA + AG, mode REC, strata ALL, unadjusted) was 0.919, the “HR_RESP_unadj (hazard ratio, pravastatin-treated versus placebo-treated)” value (PROSPER, rs10757274 genotype AA + AG, mode REC, strata hist, unadjusted) was 0.885 and the “HR_RESP_unadj (hazard ratio, pravastatin-treated versus placebo-treated)” value (PROSPER, rs10757274 genotype AA + AG, mode REC, strata no hist, unadjusted) was 0.927. For the same compound, the “HR_RESP_unadj (hazard ratio, pravastatin-treated versus placebo-treated)” value (PROSPER, rs10757274 genotype AA, mode GEN, strata ALL, unadjusted) was 1.330, the “HR_RESP_unadj (hazard ratio, pravastatin-treated versus placebo-treated)” value (PROSPER, rs10757274 genotype AA, mode GEN, strata hist, unadjusted) was 1.093 and the “HR_RESP_unadj (hazard ratio, pravastatin-treated versus placebo-treated)” value (PROSPER, rs10757274 genotype AA, mode GEN, strata no hist, unadjusted) was 1.570. The “HR_RESP_unadj (hazard ratio, pravastatin-treated versus placebo-treated)” value (PROSPER, rs10757274 genotype AG, mode GEN, strata ALL, unadjusted) was 0.777, the “HR_RESP_unadj (hazard ratio, pravastatin-treated versus placebo-treated)” value (PROSPER, rs10757274 genotype AG, mode GEN, strata hist, unadjusted) was 0.816 and the “HR_RESP_unadj (hazard ratio, pravastatin-treated versus placebo-treated)” value (PROSPER, rs10757274 genotype AG, mode GEN, strata no hist, unadjusted) was 0.698. For the same compound, the “HR_RESP_unadj (hazard ratio, pravastatin-treated versus placebo-treated)” value (PROSPER, rs10757274 genotype GG + AG, mode DOM, strata ALL, unadjusted) was 0.864, the “HR_RESP_unadj (hazard ratio, pravastatin-treated versus placebo-treated)” value (PROSPER, rs10757274 genotype GG + AG, mode DOM, strata hist, unadjusted) was 0.892 and the “HR_RESP_unadj (hazard ratio, pravastatin-treated versus placebo-treated)” value (PROSPER, rs10757274 genotype GG + AG, mode DOM, strata no hist, unadjusted) was 0.813. For the same compound, the “HR_RESP_unadj (hazard ratio, pravastatin-treated versus placebo-treated)” value (PROSPER, rs10757274 genotype GG, mode GEN, strata ALL, unadjusted) was 1.082, the “HR_RESP_unadj (hazard ratio, pravastatin-treated versus placebo-treated)” value (PROSPER, rs10757274 genotype GG, mode GEN, strata hist, unadjusted) was 1.098 and the “HR_RESP_unadj (hazard ratio, pravastatin-treated versus placebo-treated)” value (PROSPER, rs10757274 genotype GG, mode GEN, strata no hist, unadjusted) was 1.068. The “HR (hazard ratio) for stroke events, pravastatin-treated versus placebo-treated” value (PROSPER, heterozygous carriers of SNP rs10757274 (chromosome 9p21), unadjusted) was 0.777, the “EVENTS_RESP (number of stroke events)” value (PROSPER, genotype AA + AG, mode REC, strata ALL) was 150 and the “EVENTS_RESP (number of stroke events)” value (PROSPER, genotype AA + AG, mode REC, strata hist) was 87. For the same compound, the “EVENTS_RESP (number of stroke events)” value (PROSPER, genotype AA + AG, mode REC, strata no hist) was 63, the “EVENTS_RESP (number of stroke events)” value (PROSPER, genotype AA, mode GEN, strata ALL) was 56 and the “EVENTS_RESP (number of stroke events)” value (PROSPER, genotype AA, mode GEN, strata hist) was 28. The “EVENTS_RESP (number of stroke events)” value (PROSPER, genotype AA, mode GEN, strata no hist) was 28, the “EVENTS_RESP (number of stroke events)” value (PROSPER, genotype AG, mode GEN, strata ALL) was 94 and the “EVENTS_RESP (number of stroke events)” value (PROSPER, genotype AG, mode GEN, strata hist) was 59. The “EVENTS_RESP (number of stroke events)” value (PROSPER, genotype AG, mode GEN, strata no hist) was 35, the “EVENTS_RESP (number of stroke events)” value (PROSPER, genotype GG + AG, mode DOM, strata ALL) was 145 and the “EVENTS_RESP (number of stroke events)” value (PROSPER, genotype GG + AG, mode DOM, strata hist) was 86. The “EVENTS_RESP (number of stroke events)” value (PROSPER, genotype GG + AG, mode DOM, strata no hist) was 59, the “EVENTS_RESP (number of stroke events)” value (PROSPER, genotype GG, mode GEN, strata ALL) was 51 and the “EVENTS_RESP (number of stroke events)” value (PROSPER, genotype GG, mode GEN, strata hist) was 27. The “EVENTS_RESP (number of stroke events)” value (PROSPER, genotype GG, mode GEN, strata no hist) was 24, the EVENTS_RESP [1] was 71 and the “HR_RESP (hazard ratio, pravastatin-treated versus placebo-treated)” value [1] was 0.8064. For the same compound, the EVENTS_RESP [2] was 24, the “HR_RESP (hazard ratio, pravastatin-treated versus placebo-treated)” value [2] was 0.9861 and the EVENTS_RESP [3] was 47. For the same compound, the “HR_RESP (hazard ratio, pravastatin-treated versus placebo-treated)” value [3] was 0.7406, the EVENTS_RESP [4] was 43 and the “HR_RESP (hazard ratio, pravastatin-treated versus placebo-treated)” value [4] was 1.277. For the same compound, the EVENTS_RESP (hCV2091644 rs1010 VAMP8, GENO_RESP CC + CT, MODE DOM, STRATA no hist) was 50, the EVENTS_RESP [5] was 13 and the “HR_RESP (hazard ratio, pravastatin-treated versus placebo-treated)” value [5] was 0.6359. For the same compound, the EVENTS_RESP [6] was 37, the “HR_RESP (hazard ratio, pravastatin-treated versus placebo-treated)” value [6] was 0.8504 and the EVENTS_RESP [7] was 36. The “HR_RESP (hazard ratio, pravastatin-treated versus placebo-treated)” value [7] was 1.358, the EVENTS_RESP (hCV2169762 rs1804689 HPS1, GENO_RESP GG + GT, MODE REC, STRATA hist) was 109 and the EVENTS_RESP (hCV2169762 rs1804689 HPS1, GENO_RESP GG, MODE GEN, STRATA hist) was 62.
